# Test results reported in patent US20010055590A1, “Method for enhancing myoblast migration and invasion in the context of gene therapy” (priority 1999, published 2001).
# B1: recombinant human platelet-derived growth factor-BB (protein, UniProt P01127 82-190, looked up)
# Platelet-derived growth …: SLGSLTIAEPAMIAECKTRTEVFEISRRLIDRTNANFLVWPPCVEVQRCSGCCNNRNVQCRPTQVQLRPVQVRKIEIVRKKPIFKKATVTLEDHLACKCETVAAARPVT
# modifications: Platelet-derived growth factor subunit B
# notes: recombinant human platelet-derived growth factor-BB
# Key:
# Assay type in all cases: cell-based
# mouse myoblasts = test: In vitro mouse myoblast migration assay (gelatin-coated membrane); conditions: 12 hours; for effect on mouse myoblast migration: stimulant in bottom chamber; for stimulation of mouse myoblast migration over the DMEM control: 25 ng/ml bFGF, 50 μg/ml fibronectin, 10 ng/ml HGF, 2 ng/ml TGF-β1
# Procedure: Mouse myoblasts were previously isolated from hind limb muscles of 4-6 week old severe combined immunodeficient (SCID) mice and clonally purified from contaminating fibroblasts (Yao et al. “Primary myoblast-mediated gene: transfer: persistent expression of human factor IX in mice” Gene Therapy 1:99-107, 1994). Myoblasts (approximately 1×10^6 cells) were plated on 6 cm tissue culture plates coated with 0.5% gelatin (Sigma, St. Louis, Mo.) and grown in growth medium consisting of Dulbecco's Modified Eagle Medium (DMEM) (Gibco BRL, Gaithersburg Md.) supplemented with 20% fetal bovine serum (FBS; Gibco) and 0.5% chick embryo extract (CEE; Gibco). All animal studies were carried out following the institutional guidelines for ethical animal use. Human myoblasts were isolated using trypsin digestion from abdominal wall or chest wall muscle biopsies, and surgery. Written consent was obtained from all patients prior to biopsy isolation as approved by the University Hospital's Institutional Regulation Board on the use of human subjects. Cells were preplated on uncoated plates for 1 hour to separate muscle fibroblasts. […] All experiments were done with myoblasts of passage 7 or lower. Myoblast migration and invasion were examined using a commercially available in vitro cell migration and invasion assay kit (Biocoat, Becton Dickinson, Franklin Lakes, N.J.) as described by Albini et al. (A rapid in vitro assay for quantitating the invasive potential of tumor cells Cancer Res 47:3239-3245, 1987). Myoblasts were grown to approximately 70% confluence, rinsed three times in serum-free DMEM, followed by incubation for 3 hours in 0.2% bovine serum albumin (BSA) in DMEM to eliminate the effects of serum. Cells were then trypsinized and collected by centrifugation. Cells were resuspended in serum-free DMEM at a density of 1×10^5 cells/ml, and 0.5 ml aliquots of cell suspension were added to the top chamber. […] Fibronectin subfragments of 45 KDa (Sigma), 120 kDa (Gibco), 63 kDa (Retronectin, Takara) and 70 KDa (Sigma) were used alone or in combination. […] For migration studies, the upper chamber membrane was coated with 0.1% gelatin and cells were allowed to migrate for 8-12 hours, while for invasion studies, the upper membrane was coated with 5 μl of Matrigel® diluted to 5 mg/ml in sterile phosphate buffered saline (PBS) and cells were allowed to invade for 24 hours. The top side of the insert membrane was scrubbed free of cells using a cotton swab and the bottom side was stained using the Leukostat-I system (Fisher Diagnostics, Pittsburgh, Pa.). The number of cells per field was counted in 10 randomly selected fields and averaged for each condition. To evaluate the effects of inactivation or activation of MMPs, aliquots (0.05 units in 50 μl PBS) of purified human plasmin (Sigma) or 50 mM N-acetyl cysteine (NAC; Sigma) were added with the cells to the top chamber of the migration assay and growth factor was added to the bottom. […] Myoblasts (5×10^4 cells/well) were stimulated with various growth factors and fibronectin, and their ability to migrate or invade through a Matrigel® barrier (panel a, mouse myoblast migration at 12 hours; panel b, mouse myoblast invasion at 24 hours). […] Bars represent mean ±SEM from a minimum of 3 separate experiments. […] Further studies were done to elucidate the role of MMPs in cytokine-mediated mouse myoblast migration.
# MMP-2 = test: Gelatin zymography of mouse myoblast culture medium, MMP-2; conditions: mouse myoblasts treated 24 hours; densitometry normalized to DMEM control
# Procedure: Briefly, myoblasts were grown in 6 cm tissue culture plates to approximately 70% confluence, then rinsed three times with serumfree DMEM and incubated for 3 hours in DMEM containing 0.2% BSA to eliminate the effects of serum. Growth factors were added and cells were incubated for 24 hours. Culture medium was then collected, centrifuged to pellet detached cells, and concentrated ten-to twenty-fold using the Centricon-10 (Amicon, Beverly, Mass.) system. The protein concentration of the supernatants was determined using the Bio-Rad protein microassay system with BSA used as the standard. Samples were stored at −70° C. until use. For gelatin zymography, aliquots (10 μg as the total protein per sample) were electrophoresed at constant voltage on a 10% polyacrylamide gel containing 2 mg/ml gelatin. The gel was rinsed three times for 15 min in 2.5% Triton-X 100 to remove SDS and renature the proteins, then incubated in MMP activation buffer (0.05 M Tris-HCl, pH 7.5 with 5 mM CaCl2) for 24 hours at 37° C. with constant shaking. Gels were stained overnight in 0.5% Coomassie blue R-250, and destained for 1 hour in 40% methanol: 10% acetic acid. Proteinase activity was quantified by densitometric scanning of bands using a Bio-Rad Gel Doc 1000 video camera imaging system (Bio Rad, Hercules, Calif.). […] Values are arbitrary densitometric units, which are normalized to DMEM control for each experiment and shown as values ±SEM representing a minimum of 3 experiments per condition. […] Mouse myoblasts were treated for 24 hours with either DMEM alone, fibronectin (50 μg/ml), or individual fragments (37.5 μg/ml) of 45, 120, 63 (Retronectin), 75 kDa and their combinations, 45 kDa/120 kDa and 120 kDa/63 kDa.
# human myoblasts = test: In vitro human myoblast migration assay; conditions: 12 hour time point
# Procedure: Mouse myoblasts were previously isolated from hind limb muscles of 4-6 week old severe combined immunodeficient (SCID) mice and clonally purified from contaminating fibroblasts (Yao et al. “Primary myoblast-mediated gene: transfer: persistent expression of human factor IX in mice” Gene Therapy 1:99-107, 1994). Myoblasts (approximately 1×10^6 cells) were plated on 6 cm tissue culture plates coated with 0.5% gelatin (Sigma, St. Louis, Mo.) and grown in growth medium consisting of Dulbecco's Modified Eagle Medium (DMEM) (Gibco BRL, Gaithersburg Md.) supplemented with 20% fetal bovine serum (FBS; Gibco) and 0.5% chick embryo extract (CEE; Gibco). All animal studies were carried out following the institutional guidelines for ethical animal use. Human myoblasts were isolated using trypsin digestion from abdominal wall or chest wall muscle biopsies, and surgery. Written consent was obtained from all patients prior to biopsy isolation as approved by the University Hospital's Institutional Regulation Board on the use of human subjects. Cells were preplated on uncoated plates for 1 hour to separate muscle fibroblasts. Approximately 95% of the cells were desmin-positive following immunohistochemical staining of representative culture samples, and were capable of differentiation into myotubes, indicating high purity of the myoblast preparation. All experiments were done with myoblasts of passage 7 or lower. Myoblast migration and invasion were examined using a commercially available in vitro cell migration and invasion assay kit (Biocoat, Becton Dickinson, Franklin Lakes, N.J.) as described by Albini et al. (A rapid in vitro assay for quantitating the invasive potential of tumor cells Cancer Res 47:3239-3245, 1987). Myoblasts were grown to approximately 70% confluence, rinsed three times in serum-free DMEM, followed by incubation for 3 hours in 0.2% bovine serum albumin (BSA) in DMEM to eliminate the effects of serum. Cells were then trypsinized and collected by centrifugation. Cells were resuspended in serum-free DMEM at a density of 1×10^5 cells/ml, and 0.5 ml aliquots of cell suspension were added to the top chamber. […] Fibronectin subfragments of 45 KDa (Sigma), 120 kDa (Gibco), 63 kDa (Retronectin, Takara) and 70 KDa (Sigma) were used alone or in combination. The growth factor concentrations used were those which could produce maximal effects as examined in the present studies by extending from values reported by Bischoff (“Chemotaxis of skeletal muscle satellite cells” Devel. Dynamics 208:505-515, 1997). For migration studies, the upper chamber membrane was coated with 0.1% gelatin and cells were allowed to migrate for 8-12 hours, while for invasion studies, the upper membrane was coated with 5 μl of Matrigel® diluted to 5 mg/ml in sterile phosphate buffered saline (PBS) and cells were allowed to invade for 24 hours. The top side of the insert membrane was scrubbed free of cells using a cotton swab and the bottom side was stained using the Leukostat-I system (Fisher Diagnostics, Pittsburgh, Pa.). The number of cells per field was counted in 10 randomly selected fields and averaged for each condition. To evaluate the effects of inactivation or activation of MMPs, aliquots (0.05 units in 50 μl PBS) of purified human plasmin (Sigma) or 50 mM N-acetyl cysteine (NAC; Sigma) were added with the cells to the top chamber of the migration assay and growth factor was added to the bottom. […] The effects of growth factors on human myoblast migration in vitro (12 hour time point) were somewhat different from those observed with mouse myoblasts. […] The greatly elevated level of migration of human myoblasts was due in part to the extremely low migration in the BSA control (basal level) of human cells compared to mouse cells. The largest effects on human myoblast migration were produced by fibronectin (100-fold), PDGF (about 62-fold), TGF-β (about 54-fold) and HGF (46-fold) over the control level, while bFGF produced only a 37-fold stimulation (FIG. 7a). […]
Molecule,effect on mouse myoblast migration (mouse myoblasts),increase of total MMP-2 expression (MMP-2) [%],stimulation of human myoblast migration over the BSA control level (human myoblasts),stimulation of mouse myoblast migration over the DMEM control (mouse myoblasts) [fold]
recombinant human insulin-like growth factor-I [IGF-I],stimulated migration of mouse myoblasts to various degrees,69,–,–
recombinant hepatocyte growth factor [HGF],stimulated migration of mouse myoblasts to various degrees,–,46 fold,8
purified human transforrning growth factor-β1 [TGF-β1],stimulated migration of mouse myoblasts to various degrees,36,about 54 fold,5
B1,stimulated migration of mouse myoblasts to various degrees,35,about 62 fold,–
